Data taken from patent US10336762B2 (priority 2017, dated 2019).

Experiments:
[1] = biological target: IRAK4 enzyme (Homo sapiens (Human), UniProt Q9NWZ3); experiment: biochemical; format: biochemical; settings: IRAK4 enzyme, TR-FRET, 500 μM ATP
[2] = tested on: TNFα; experiment: cells; format: cell-based, human; settings: Homo sapiens, Monocyte, LPS-stimulated human monocytes, TNFα content; read-out: EC50 TNF

IRAK4 enzyme, sequence (Q9NWZ3 whole entry): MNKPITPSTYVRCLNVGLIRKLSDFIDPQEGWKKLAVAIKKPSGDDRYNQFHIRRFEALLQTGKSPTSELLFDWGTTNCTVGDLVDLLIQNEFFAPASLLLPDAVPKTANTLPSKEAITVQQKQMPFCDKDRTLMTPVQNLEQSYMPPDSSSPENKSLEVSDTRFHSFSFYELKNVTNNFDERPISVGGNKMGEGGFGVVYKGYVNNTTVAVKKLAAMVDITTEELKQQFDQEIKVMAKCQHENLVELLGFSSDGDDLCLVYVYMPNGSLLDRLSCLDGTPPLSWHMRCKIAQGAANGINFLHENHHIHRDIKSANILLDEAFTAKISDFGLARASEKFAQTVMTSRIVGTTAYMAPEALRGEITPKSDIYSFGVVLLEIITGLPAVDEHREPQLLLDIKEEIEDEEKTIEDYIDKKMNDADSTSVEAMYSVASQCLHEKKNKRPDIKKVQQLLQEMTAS

Row | Compound | IC50 [1] [nM] | EC50 [2] [nM]
1 | Cc1ccc(-c2cc(Nc3cc(-c4ccc5cc(C#N)cnn45)ncc3C(=O)NC[C@@H](F)C(C)(C)O)n(-c3ccccc3)n2)cc1 [Example 364, (R)-6-(3-cyanopyrrolo[1,2-b]pyridazin-7-yl)-N-(2-fluoro-3-hydroxy-3-methylbutyl)-4-((1-phenyl-3-(p-tolyl)-1H-pyrazol-5-yl)amino)nicotinamide] | 1000 | > 10000
2 | CC(C)(O)[C@H](F)CNC(=O)c1cnc(-c2ccc3cc(C#N)cnn23)cc1Nc1sc2c(c1C(N)=O)CCCC2 [Example 365, (R)-4-((3-carbamoyl-4,5,6,7-tetrahydrobenzo[b]thiophen-2-yl)amino)-6-(3-cyanopyrrolo[1,2-b]pyridazin-7-yl)-N-(2-fluoro-3-hydroxy-3-methylbutyl)nicotinamide] | 4 | 415
3 | CN(C)C1CCC(NC(=O)c2cnc(-c3ccc4cc(C#N)cnn34)cc2N[C@H]2CCC[C@@H](O)C2)CC1 (stereo partly drawn) [Example 366, 6-(3-cyanopyrrolo[1,2-b]pyridazin-7-yl)-N-((1r,4S)-4-(dimethylamino)cyclohexyl)-4-(((1S,3R)-3-hydroxycyclohexyl)amino) nicotinamide] | 1 | 162
4 | CC(C)(O)[C@H](F)CNC(=O)c1cnc(-c2ccc3cc(C#N)cnn23)cc1NC1CCC(=O)NC1 (stereo partly drawn) [Example 367, 6-(3-cyanopyrrolo[1,2-b]pyridazin-7-yl)-N-((R)-2-fluoro-3-hydroxy-3-methylbutyl)-4-((6-oxopiperidin-3-yl)amino)nicotinamide] | 3 | 1560
5 | CC(C)(O)[C@H](F)CNC(=O)c1cnc(-c2ccc3cc(C#N)cnn23)cc1N[C@H]1CCC(=O)NC1 [Example 368, 6-(3-cyanopyrrolo[1,2-b]pyridazin-7-yl)-N-((R)-2-fluoro-3-hydroxy-3-methylbutyl)-4-(((S)-6-oxopiperidin-3-yl)amino)nicotinamide] | 5 | 2890
6 | CC(C)NC(=O)c1cnc(-c2ccc3cc(C#N)cnn23)cc1NC(C)C [Example 369, 6-(3-cyanopyrrolo[1,2-b]pyridazin-7-yl)-N-isopropyl-4-(isopropylamino)nicotinamide] | 16 | 922
7 | CC(C)(O)[C@H](F)CNC(=O)c1cnc(-c2ccc3cc(C#N)cnn23)cc1Nc1ccn(Cc2ccccc2)n1 [Example 370, (R)-4-((1-benzyl-1H-pyrazol-3-yl)amino)-6-(3-cyanopyrrolo[1,2-b]pyridazin-7-yl)-N-(2-fluoro-3-hydroxy-3-methylbutyl)nicotinamide] | 1 | 10
8 | Cn1ccc(Nc2cc(-c3ccc4cc(C#N)cnn34)ncc2C(=O)NC[C@@H](F)C(C)(C)O)n1 [Example 371, (R)-6-(3-cyanopyrrolo[1,2-b]pyridazin-7-yl)-N-(2-fluoro-3-hydroxy-3-methylbutyl)-4-((1-methyl-1H-pyrazol-3-yl)amino)nicotinamide] | < 1 | 61
9 | CC(C)(O)[C@H](F)CNC(=O)c1cnc(-c2ccc3cc(C#N)cnn23)cc1NC12CC(C(N)=O)(C1)C2 [Example 373, (R)-4-((3-carbamoylbicyclo[1.1.1]pentan-1-yl)amino)-6-(3-cyanopyrrolo[1,2-b]pyridazin-7-yl)-N-(2-fluoro-3-hydroxy-3-methylbutyl)nicotinamide] | < 1 | 141
10 | CC(C)(O)[C@H](F)CNC(=O)c1cnc(-c2ccc3cc(C#N)cnn23)cc1Nc1nc(C(F)(F)F)cs1 [Example 374, (R)-6-(3-cyanopyrrolo[1,2-b]pyridazin-7-yl)-N-(2-fluoro-3-hydroxy-3-methylbutyl)-4-((4-(trifluoromethyl)thiazol-2-yl)amino)nicotinamide] | 1 | 327
11 | CC(C)(O)[C@H](F)CNC(=O)c1cnc(-c2ccc3cc(C#N)cnn23)cc1Nc1nccs1 [Example 375, (R)-6-(3-cyanopyrrolo[1,2-b]pyridazin-7-yl)-N-(2-fluoro-3-hydroxy-3-methylbutyl)-4-(thiazol-2-ylamino)nicotinamide] | 1 | 110
12 | COc1ccc2nc(Nc3cc(-c4ccc5cc(C#N)cnn45)ncc3C(=O)NC[C@@H](F)C(C)(C)O)sc2c1 [Example 376, (R)-6-(3-cyanopyrrolo[1,2-b]pyridazin-7-yl)-N-(2-fluoro-3-hydroxy-3-methylbutyl)-4-((6-methoxybenzo[d]thiazol-2-yl)amino)nicotinamide] | 2 | 736
13 | CC(C)(O)[C@H](F)CNC(=O)c1cnc(-c2ccc3cc(C#N)cnn23)cc1NC12CC(C#N)(C1)C2 [Example 378, (R)-4-((3-cyano-bicyclo[1.1.1]pentan-1-yl)amino)-6-(3-cyano-pyrrolo[1,2-b]pyridazin-7-yl)-N-(2-fluoro-3-hydroxy-3-methylbutyl) nicotinamide] | < 1 | 38
14 | CC(C)Nc1cc(-c2ccc3cc(C#N)cnn23)ncc1C(=O)NC12CC(C#N)(C1)C2 [Example 380, N-(3-cyanobicyclo[1.1.1]pentan-1-yl)-6-(3-cyano-pyrrolo[1,2-b]pyridazin-7-yl)-4-(isopropylamino) nicotinamide] | 15 | 773
15 | CC(C)(O)[C@H](F)CNC(=O)c1cnc(-c2ccc3cc(C#N)cnn23)cc1Nc1ccc(C(N)=O)cc1 [Example 381] | < 1 | 18
16 | CC(C)(O)[C@H](F)CNC(=O)c1cnc(-c2ccc3cc(C#N)cnn23)cc1Nc1ccccc1C(N)=O [Example 382, (R)-4-((2-carbamoyl-phenyl)amino)-6-(3-cyanopyrrolo[1,2-b]pyridazin-7-yl)-N-(2-fluoro-3-hydroxy-3-methylbutyl)nicotinamide] | 10 | 586
17 | CC(C)(O)[C@H](F)CNC(=O)c1cnc(-c2ccc3cc(C#N)cnn23)cc1Nc1cccc(C(N)=O)c1 [Example 383, (R)-4-((3-carbamoyl-phenyl)amino)-6-(3-cyanopyrrolo[1,2-b]pyridazin-7-yl)-N-(2-fluoro-3-hydroxy-3-methylbutyl)nicotinamide] | < 1 | 144
18 | CC(C)(O)[C@H](F)CNC(=O)c1cnc(-c2ccc3cc(C#N)cnn23)cc1Nc1cccc(F)c1 [Example 384, (R)-6-(3-cyanopyrrolo[1,2-b]pyridazin-7-yl)-N-(2-fluoro-3-hydroxy-3-methylbutyl)-4-((3-fluorophenyl)amino) nicotinamide] | 1 | 129
19 | CC(C)(O)[C@H](F)CNC(=O)c1cnc(-c2ccc3cc(C#N)cnn23)cc1Nc1ccc(-n2ccccc2=O)cc1 [Example 385, (R)-6-(3-cyanopyrrolo[1,2-b]pyridazin-7-yl)-N-(2-fluoro-3-hydroxy-3-methylbutyl)-4-((4-(2-oxopyridin-1(2H)-yl)phenyl)amino)nicotinamide] | < 1 | 36
20 | N#Cc1ccc(NC(=O)c2cnc(-c3ccc4cc(C#N)cnn34)cc2N[C@H]2CCC[C@@H](O)C2)nc1 [Example 386, 6-(3-cyanopyrrolo[1,2-b]pyridazin-7-yl)-N-(5-cyanopyridin-2-yl)-4-(((1S,3R)-3-hydroxycyclohexyl)amino)nicotinamide] | 8 | 2380
